Test results published in paper PMC6149849, “Cymantrenyl-Nucleobases: Synthesis, Anticancer, Antitrypanosomal and Antimicrobial Activity Studies” (Molecules : A Journal of Synthetic Chemistry and Natural …, 2017).
Like-named read-outs stand apart in the source and are kept apart here.

Assays:
[1] = system: A549 (non-small cell lung carcinoma); test: MTT cytotoxicity assay, A549
Protocol: Anticancer activity of cymantrenes was determined using a panel of human cancer cell lines that were derived from solid tumors. These included cell lines of estrogen-responsive, doxorubicin resistant, and triple negative breast adenocarcinomas (MCF-7, MCF-7/DX, and MDA-MB-231), ovarian adenocarcinoma (SKOV-3), non-small cell lung carcinoma (A549), hepatocellular carcinoma (HepG2), and glioblastoma (U-87 MG). The inhibitory effect of cymantrene derivatives on cell proliferation and growth was determined based on survival curves and was expressed as IC50 values (concentration required to achieve a 50% decrease in cell viability when compared to the viability of untreated control cells) calculated using GraphPad Prism 4.02 software for Windows (GraphPad Software, San Diego, CA, USA). Cell viability was determined by the MTT microplate spectrophotometric cytotoxicity test.
Anticancer activity of cymantrene derivetives were determined on the basis of their cytotoxic effects on a panel of human cancer cells, as derived from different types of solid tumors: estrogen responsive breast adenocarcinoma (MCF-7), triple negative breast adenocarcinoma (MDA-MB-231), ovarian adenocarcinoma (SKOV-3), non-small cell lung carcinoma (A549), hepatocellular carcinoma (HepG2), and glioblastoma (U-87 MG). Additionally, doxorubicin resistant breast adenocarcinoma cells (MCF-7/Dox) were also included for comparison. All of the cell lines were purchased from American Type Culture Collection (ATCC, Rockville, MD, USA), except the MCF-7/dox cell line, which was a generous gift from Professor Malgorzata Latocha from the Department of Cell Biology, Medical University of Silesia in Katowice, Poland.
Cells were grown as a monolayer in DMEM growth medium, supplemented with 10% FBS, penicillin (10 U/mL) and streptomycin (50 μg/mL), under standard conditions (37 °C, 5% CO2 and 95% air, 100% humidity) and periodically checked for Mycoplasma contamination.
The cytotoxicity of cymantrene derivatives was evaluated by the MTT microplate methods as described elsewhere by incubating the cells with increasing concentrations of tested compounds for 24 h. Briefly, 0.1 mL of logarithmically growing cells were seeded in a 96-well microplate (5 × 10^4 cells/well) a day before the experiments and after 24 h of culture, tested compounds, dissolved in DMSO, and diluted in culture medium, were added. […] After further incubation for 24 h, the medium was replaced with fresh medium and the cells were allowed to grow for additional 48 h. Then, the medium was aspirated and 0.05 mL of MTT (final concentration of […] medium) added to each well, and the cells were incubated for further 4 h. The absorbance of the product, resulting from the MTT reduction, was read with a microplate reader at 545 nm. The percentage of viable cells was calculated by comparing the absorbance of treated cells with that of the untreated control cells (taken as 100%). The IC50 concentration of each compound was calculated from the cell survival curves using GraphPad Prism 4.02 software for Windows (GraphPad Software, San Diego, CA, USA).

[2] = system: SKOV-3 (ovarian adenocarcinoma); test: MTT cytotoxicity assay, SKOV-3; type: cell-based, human
Protocol: Anticancer activity of cymantrenes was determined using a panel of human cancer cell lines that were derived from solid tumors. […] The inhibitory effect of cymantrene derivatives on cell proliferation and growth was determined based on survival curves and was expressed as IC50 values (concentration required to achieve a 50% decrease in cell viability when compared to the viability of untreated control cells) calculated using GraphPad Prism 4.02 software for Windows (GraphPad Software, San Diego, CA, USA). Cell viability was determined by the MTT microplate spectrophotometric cytotoxicity test.
(§1) The cytotoxicity of cymantrene derivatives was evaluated by the MTT microplate methods as described elsewhere [67] by incubating the cells with increasing concentrations of tested compounds for 24 h. Briefly, 0.1 mL of logarithmically growing cells were seeded in a 96-well microplate (5 × 10^4 cells/well) a day before the experiments and after 24 h of culture, tested compounds, dissolved in DMSO, and diluted in culture medium, were added. […] After further incubation for 24 h, the medium was replaced with fresh medium and the cells were allowed to grow for additional 48 h. Then, the medium was aspirated and 0.05 mL of MTT (final concentration of 5 mg/mL medium) added to each well, and the cells were incubated for further 4 h. The absorbance of the product, resulting from the MTT reduction, was read with a microplate reader at 545 nm. The percentage of viable cells was calculated by comparing the absorbance of treated cells with that of the untreated control cells (taken as 100%). The IC50 concentration of each compound was calculated from the cell survival curves using GraphPad Prism 4.02 software for Windows (GraphPad Software, San Diego, CA, USA).

[3] = system: Gram-positive bacterial strains, including MRSA and VISA pathogens; test: Antibacterial activity over the panel of strains (summary statements); type: cell-based; conditions: for antibacterial activity in words: reference bacterial strains; for antibacterial activity (range over strains): summary range
Protocol: Organometallic compounds play an increasingly important role in the search for new antibacterial agents. We, therefore, thought to investigate also the bactericidal activity of the newly synthesized cymantrenes 1–7, compound C and CymH. The antibacterial activity of the compounds was tested against Gram-positive methicillin-sensitive Staphylococcus aureus (MSSA), methicillin-resistant S. aureus (MRSA), vancomycin-intermediate S. aureus (VISA), S. epidermidis, and Gram-negative Escherichia coli bacterial strains, and expressed as minimal inhibitory concentration (MIC) values (Table 3).
The antibacterial activity of CymH, 1–7 and C and the reference drugs penicillin G and polymyxin B was tested by the liquid microdilution method under standard conditions using twofold dilution series, as described in the Clinical and Laboratory Standards Institute (CLSI), reference method M07-A8, and expressed as minimal inhibitory concentration (MIC) values. A panel of Gram-positive bacterial strains, S. aureus ATCC® 29213 (sensitive to methicillin, (MSSA)), S. aureus ATCC® 43300 (resistant to methicillin, (MRSA)), S. aureus ATCC 700787™ (intermediate to vancomycin, (VISA)), and S. epidermidis ATCC 12228™, and one Gram-negative, strain E. coli ATCC BAA-198™ (ESBL) were used. In addition, four clinical isolates of S. aureus (MSSA and MRSA) and two clinical isolates of S. epidermidis that were collected from different patients at the Medical University of Warsaw, Poland, were also tested. The bacterial cells were cultivated on tryptic soy agar (TSA) and nutrient agar (NA), according to ATCC recommendations. All of the strains were incubated at 37 °C. Tested compounds were dissolved in DMSO and then serially diluted twofold with cation-adjusted Mueller-Hinton broth (CAMHB). Then, 95 µL of the dilutions were dispensed into microdilution sterile plates (Mar-Four), followed by the addition of 5 µL of bacteria inoculum containing 5 × 10^4 CFU/mL. The final concentrations of the compounds ranged from 512 to 2 µg/mL. Each compound was tested in triplicate, and Penicillin G (8–0.15 µg/mL) and Polymyxin B (256–0.0625 µg/mL) were used as controls. The plates were incubated at 37 °C for 18 to 24 h depending on the bacterial strain. Thereafter, the absorbance was measured at λ = 540 nm and λ = 595 nm using a Spectrostar Omega microplate reader (BMG Labtech, Offenburg, Germany). The MIC value was defined as the lowest concentration of a compound that reduced the growth by 100%.

[4] = system: human myeloid leukemia HL-60 cells; test: in vitro
Protocol: All of the cultures were maintained at 37 °C in a humidified atmosphere containing 5% of CO2. Toxicity assays were performed, as previously described, with some modifications. In brief, trypanosomes and HL-60 cells were seeded at an initial cell density of 10^4/mL and 5 × 10^4/mL, respectively, in 96-well plates in a final volume of 200 μL culture medium containing various concentrations of test compounds dissolved in 100% DMSO. […] The controls contained DMSO alone. In all of the experiments, the final DMSO concentration was 0.9%. After 24 h incubation, 20 µL of a 0.5 mM resazurin solution prepared in PBS was added and the cultures were incubated for a further 48 h. Resazurin is a vital dye that, when being reduced by living cells, changes its colour from blue to pink. Thus, by measuring absorbance, the proliferation of cells can be easily determined. The change in absorbance was read with a microplate reader using a test wavelength of 570 nm and a reference wavelength of 630 nm. GI50 values were calculated by linear interpolation according to the method described by Huber and Koella. MIC values were determined microscopically.

[5] = system: MCF-7/DX (estrogen-responsive breast adenocarcinoma resistant to doxorubicin); test: cells; type: cell-based, human
Protocol: as §1

[6] = Determination of log Po/w by chromatographic (RP-HPLC) method, Soczewiński–Wachtmeister relationship; conditions: water/methanol, C18, 20 °C
Protocol: In this study, a chromatographic method and the Soczewiński–Wachtmeister relationship were used in order to determine the lipophilicity of the compounds [38, 39, 40, 41]
For the determination of log Po/w values, the newly synthesized compounds were analyzed by an Agilent 1200 system (Agilent Technologies, Santa Clara, CA, USA) equipped with a Zorbax Eclipse XDB column (C18, 250 × 4.6 mm, Agilent Technologies) and controlled by the software ChemStation Data Analysis. The separation was isocratic, and water/methanol (HPLC gradient grade, Sigma-Aldrich, St. Louis, MO, USA) mixtures containing 0.50, 0.55, 0.60, 0.65, 0.70, 0.75, 0.80, 0.85, 0.90 and 0.95 volume fractions of organic modifier were used as the mobile phase. The flow rate was 1.0 mL/min for the 7 and 2 and 0.8 mL/min for other compounds. The chromatographic peaks of test compounds were detected by UV absorbance at 230 nm. The column temperature was kept at 20 °C. The dead-time values were measured from the effluent peaks. All of the runs were performed in triplicate, and the resulting average values were used for the calculation of the retention factors.

[7] = concentration at which all cells were killed
[8] = read-out: HL-60 GI50, 50% growth inhibition
[9] = read-out: cytotoxicity IC50, A549, 24 h incubation, MTT, means ± SEM
[10] = 24 h incubation, MTT, means ± SEM, read-out: cytotoxicity IC50, SKOV-3
[11] = 24 h incubation, MTT, means ± SEM, read-out: cytotoxicity IC50, MCF-7/DX

For `CCC(=O)[C]12[CH]3[CH]4[CH]5[CH]1[Mn]4532.[C-]#[O+].[C-]#[O+].[C-]#[O+]` (stereo not drawn) [Compound 7, propionylocymantrene], which IC50 [1] is on record?
The IC50 was 30.6 ± 1.35 µM.

And the IC50 [2]?
The IC50 was 69.8 ± 3.49 µM.

And the “antibacterial activity in words” value [3]?
The value was “not active”.

Which GI50 [4] does the source give for `O=C(CCn1cc(F)c(=O)[nH]c1=O)[C]12[CH]3[CH]4[CH]5[CH]1[Mn]4532.[C-]#[O+].[C-]#[O+].[C-]#[O+]` (stereo not drawn) [Compound 1] here?
The GI50 was 33.1 ± 3.4 µM.

What about the “HL-60 MIC” value [4] of the same molecule?
Its value is 100 µM.

And the IC50 [1]?
Its IC50 is 25.1 ± 1.25 µM.

What about the IC50 [2] of the same molecule?
The IC50 was 75.1 ± 3.76 µM.

What about the IC50 [5] of the same molecule?
The IC50 was 137 ± 3.41 µM.

What about the “antibacterial activity in words” value [3] of the same molecule?
The value was “remarkable potency against all of the Gram-positive bacterial strains”.

And the “antibacterial activity (range over strains)” value [3]?
The value was 8 to 64 µg/mL.

With `O=[C]=[Mn](=[C]=O)(=[C]=O)[CH]1C=CC=C1` [CymH, tricarbonyl(η^5-cyclopentadienyl)manganese, reference compound] as the molecule, how does the “HL-60 MIC” value [4, 7] read?
Its value is >100 µM.

What about the GI50 [4, 8] of the same molecule?
Its GI50 is > 100 µM.

What about the IC50 [1, 9] of the same molecule?
Its IC50 is 87 ± 1.35 µM.

And the IC50 [2, 10]?
Its IC50 is 121 ± 3.05 µM.

What about the “Log Po/w” value [6] of the same molecule?
Its value is 3.5.

And the IC50 [5, 11]?
Its IC50 is 144 ± 2.24 µM.

And the “antibacterial activity in words” value [3]?
Its value is “not active”.

For `Nc1ncnc2c1ncn2CCC(O)[C]12[CH]3[CH]4[CH]5[CH]1[Mn]4532[P](c1ccccc1)(c1ccccc1)c1ccccc1.[C-]#[O+].[C-]#[O+]` (racemic) [Compound 5], which “HL-60 MIC” value [4, 7] is on record?
Its value is 100 µM.

And the GI50 [4, 8]?
The GI50 was 28.7 ± 3 µM.

And the IC50 [1, 9]?
Its IC50 is 23.7 ± 0.86 µM.

What about the IC50 [2, 10] of the same molecule?
Its IC50 is 63.8 ± 3.19 µM.

And the “Log Po/w” value [6]?
Its value is 4.8.

Which IC50 [1] does the source give for `Nc1ncnc2c1ncn2CCC(O)[C]12[CH]3[CH]4[CH]5[CH]1[Mn]45321[P](c2ccccc2)(c2ccccc2)CC[P]1(c1ccccc1)c1ccccc1.[C-]#[O+]` (racemic) [Compound C] here?
Its IC50 is 16.5 ± 0.82 µM.

And the “antibacterial activity in words” value [3]?
Its value is “remarkable potency against all of the Gram-positive bacterial strains”.

And the “antibacterial activity (range over strains)” value [3]?
The value was 8 to 64 µg/mL.

Which GI50 [4] does the source give for `COC(CCn1cc(F)c(=O)n(C)c1=O)[C]12[CH]3[CH]4[CH]5[CH]1[Mn]4532.[C-]#[O+].[C-]#[O+].[C-]#[O+]` (racemic) [Compound 4] here?
The GI50 was > 100 µM.

What about the “HL-60 MIC” value [4] of the same molecule?
The value was >100 µM.

And the IC50 [1]?
Its IC50 is > 150 µM.

And the IC50 [2]?
Its IC50 is > 150 µM.

For `COC(CCn1cnc2c(N(C)C)ncnc21)[C]12[CH]3[CH]4[CH]5[CH]1[Mn]4532.[C-]#[O+].[C-]#[O+].[C-]#[O+]` (racemic) [Compound 6], which GI50 [4] is on record?
The GI50 was 95.2 ± 44.4 µM.

What about the “HL-60 MIC” value [4] of the same molecule?
The value was >100 µM.

What about the IC50 [1] of the same molecule?
Its IC50 is 102 ± 1.08 µM.

And the IC50 [2]?
The IC50 was 77.1 ± 3.86 µM.

Which “HL-60 MIC” value [4, 7] does the source give for `O=c1[nH]c(=O)n(CCC(O)[C]23[CH]4[CH]5[CH]6[CH]2[Mn]5643[P](c2ccccc2)(c2ccccc2)c2ccccc2)cc1F.[C-]#[O+].[C-]#[O+]` (racemic) [Compound 3] here?
Its value is 100 µM.

What about the GI50 [4, 8] of the same molecule?
The GI50 was 30.6 ± 2.6 µM.

And the IC50 [1, 9]?
Its IC50 is 20.4 ± 1.09 µM.

And the IC50 [2, 10]?
The IC50 was 53 ± 2.65 µM.

What about the “Log Po/w” value [6] of the same molecule?
The value was 5.2.

And the IC50 [5, 11]?
Its IC50 is 39.9 ± 1.41 µM.
